Assay results taken from US20100204247A1, “N-SUBSTITUTED OXINDOLINE DERIVATIVES AS CALCIUM CHANNEL BLOCKERS” (priority 2007, published 2010).
pIC50: −log10 of the molar value.

Biological target: T1, N-type calcium channel (Human Cav2.2 channels) (Homo sapiens, UniProt Q00975)
T1 construct: expressed in transfected cells
Experiment: N-type calcium channel (Cav2.2) antagonist assays: fluorescent potassium depolarization assay, IonWorks and PatchXpress/manual patch clamp electrophysiology
Format: cell-based
Details: in the aforementioned assays (Assay Examples 1-3); the specific assay is not stated; read-out: IC50, antagonizing the N-type calcium channel
Description: Fluorescent Assay for Cav2.2 Channels using Potassium Depolarization to Initiate Channel Opening
Human Cav2.2 channels were stably expressed in KEK293 cells along with alpha2-delta and beta subunits of voltage-gated calcium channels. An inwardly rectifying potassium channel (Kir2.3) was also expressed in these cells to allow more precise control of the cell membrane potential by extracellular potassium concentration. At low bath potassium concentration, the membrane potential is relatively negative, and is depolarized as the bath potassium concentration is raised. In this way, the bath potassium concentration can be used to regulate the voltage-dependent conformations of the channels. […]
Calcium influx through Cav2.2 channels is determined using a calcium-sensitive fluorescent dye in combination with a fluorescent plate reader. Fluorescent changes were measured with either a VIPR (Aurora Instruments) or FLIPR (Molecular Devices) plate reader.
• 1. […] Read cell plate on VIPR instrument, Excitation=480 nm, Emission=535 nm • 9. With VIPR continuously reading, add 0.1 mL (96-well plate) or 0.03 mL (384-well plate) of Depolarization Buffer, which is 2× the final assay concentration, to the cell plate. […]
Block of N-type calcium channels is evaluated utilizing the IonWorks HT 384 well automated patch clamp electrophysiology device. […]

T1 sequence (Q00975 whole entry): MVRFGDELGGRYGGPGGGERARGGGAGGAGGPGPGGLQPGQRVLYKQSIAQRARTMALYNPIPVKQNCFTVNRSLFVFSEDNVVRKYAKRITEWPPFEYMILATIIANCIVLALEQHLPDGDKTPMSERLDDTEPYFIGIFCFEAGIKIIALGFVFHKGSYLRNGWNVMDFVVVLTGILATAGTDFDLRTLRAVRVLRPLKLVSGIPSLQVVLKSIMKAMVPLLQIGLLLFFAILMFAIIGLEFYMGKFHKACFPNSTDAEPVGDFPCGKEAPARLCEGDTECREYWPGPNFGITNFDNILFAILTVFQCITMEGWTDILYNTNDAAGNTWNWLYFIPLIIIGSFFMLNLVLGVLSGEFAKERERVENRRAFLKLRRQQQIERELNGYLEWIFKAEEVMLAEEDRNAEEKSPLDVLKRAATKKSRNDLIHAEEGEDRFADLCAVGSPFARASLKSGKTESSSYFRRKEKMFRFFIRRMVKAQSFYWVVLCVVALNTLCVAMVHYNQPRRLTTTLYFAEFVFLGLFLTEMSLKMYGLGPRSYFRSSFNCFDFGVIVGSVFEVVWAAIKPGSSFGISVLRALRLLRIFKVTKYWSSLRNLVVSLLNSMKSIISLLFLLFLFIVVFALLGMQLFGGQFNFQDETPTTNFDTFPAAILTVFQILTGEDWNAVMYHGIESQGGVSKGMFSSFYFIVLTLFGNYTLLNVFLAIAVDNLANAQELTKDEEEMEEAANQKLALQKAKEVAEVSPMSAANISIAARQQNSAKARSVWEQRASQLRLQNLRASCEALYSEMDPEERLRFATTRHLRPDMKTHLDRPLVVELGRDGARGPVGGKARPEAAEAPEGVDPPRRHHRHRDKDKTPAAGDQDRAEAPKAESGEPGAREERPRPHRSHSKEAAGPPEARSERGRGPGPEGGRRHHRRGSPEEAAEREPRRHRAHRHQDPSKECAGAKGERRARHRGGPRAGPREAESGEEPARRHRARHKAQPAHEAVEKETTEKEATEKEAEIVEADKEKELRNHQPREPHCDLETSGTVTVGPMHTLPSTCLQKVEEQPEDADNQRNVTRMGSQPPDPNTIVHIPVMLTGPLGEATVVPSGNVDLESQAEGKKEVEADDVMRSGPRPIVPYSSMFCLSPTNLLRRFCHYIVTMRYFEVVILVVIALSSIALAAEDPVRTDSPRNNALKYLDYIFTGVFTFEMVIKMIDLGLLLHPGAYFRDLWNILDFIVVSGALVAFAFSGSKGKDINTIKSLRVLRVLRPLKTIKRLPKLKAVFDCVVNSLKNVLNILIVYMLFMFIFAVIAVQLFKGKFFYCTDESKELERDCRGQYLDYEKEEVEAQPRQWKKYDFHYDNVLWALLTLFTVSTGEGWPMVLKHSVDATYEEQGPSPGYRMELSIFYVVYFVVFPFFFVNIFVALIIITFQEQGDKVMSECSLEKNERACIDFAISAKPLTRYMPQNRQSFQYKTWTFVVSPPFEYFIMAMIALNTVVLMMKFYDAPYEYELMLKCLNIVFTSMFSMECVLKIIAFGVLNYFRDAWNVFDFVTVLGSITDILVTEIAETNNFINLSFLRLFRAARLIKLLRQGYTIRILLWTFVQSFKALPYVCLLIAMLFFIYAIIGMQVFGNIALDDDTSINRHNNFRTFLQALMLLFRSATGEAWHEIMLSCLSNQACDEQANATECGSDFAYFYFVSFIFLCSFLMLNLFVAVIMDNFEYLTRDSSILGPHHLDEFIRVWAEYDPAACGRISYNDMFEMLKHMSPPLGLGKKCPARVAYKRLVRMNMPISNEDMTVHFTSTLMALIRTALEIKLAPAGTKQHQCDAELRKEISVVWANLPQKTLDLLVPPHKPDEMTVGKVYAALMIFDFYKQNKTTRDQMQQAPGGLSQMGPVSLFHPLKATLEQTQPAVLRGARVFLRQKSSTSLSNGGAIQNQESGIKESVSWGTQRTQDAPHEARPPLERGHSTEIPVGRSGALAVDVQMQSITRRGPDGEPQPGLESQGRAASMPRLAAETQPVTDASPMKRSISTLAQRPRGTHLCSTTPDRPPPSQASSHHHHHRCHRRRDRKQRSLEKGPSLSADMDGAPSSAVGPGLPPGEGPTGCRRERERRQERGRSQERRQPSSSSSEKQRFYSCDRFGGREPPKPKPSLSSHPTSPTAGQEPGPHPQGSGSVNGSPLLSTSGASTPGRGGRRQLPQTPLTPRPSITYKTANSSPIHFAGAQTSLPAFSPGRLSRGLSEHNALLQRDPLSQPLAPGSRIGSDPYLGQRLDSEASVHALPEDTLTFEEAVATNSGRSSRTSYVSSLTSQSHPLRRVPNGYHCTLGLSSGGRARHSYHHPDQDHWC

Row | pIC50 | Compound
1 | 6.85 | CC1(Cc2cncnc2)C(=O)Nc2ccc(-c3cccc(OCC(F)(F)F)c3)cc21 (centres unmarked) [Example 15, 3-methyl-3-(pyrimidin-5-ylmethyl)-5-[3-(2,2,2-trifluoroethoxy)phenyl]-1,3-dihydro-2H-indol-2-one]
2 | 6.23 | CC1(Cc2cc(F)cc(F)c2)C(=O)Nc2ccc(-c3ccc(F)cc3)cc21 (centres unmarked) [Example 12, 3-(3,5-difluorobenzyl)-5-(4-fluorophenyl)-3-methyl-1,3-dihydro-2H-indol-2-one]
